In patent US20250136570A1 (Tango Therapeutics, Inc., priority 2021, published 2025):

How the values were obtained:
Recombinant HDAC1 = Recombinant HDAC1 (Homo sapiens (Human), UniProt Q13547); test: HDAC1 inhibition, Fluor de Lys fluorescent enzyme assay; type: biochemical; conditions: 3 hours pre-incubation at room temp; 6 nM enzyme; 16 μM Fluor de Lys substrate; duplicate
Description: (§1) Recombinant HDAC1 (cat #: 50051) and HDAC3/NCor2 (cat #: 50003) enzymes were purchased from BPS Bioscience (San Diego, CA, US). Assay reagents for the detection of HDAC enzyme activity (Fluor de Lys®—Green substrate and Developer kits) were purchased from Enzo Life Science (Farmingdale, NY, US). Plates used to conduct the enzyme reaction were Proxiplate-384 (cat #: 6008280) Plus from PerkinElmer (Waltham, MA, US). TSA, an HDAC inhibitor, was purchased from Enzo Life Science (cat #BML-GR309-9090) The remainder of the reagents used to prepare the assay buffer were purchased from Sigma-Aldrich (St Louis, MO, US). Unless stated otherwise, HDAC1 and 3 assays were conducted in 50 mM Tris buffer, pH 8, 137 mM NaCl, 2.7 mM KCl, 0.01% BSA.
(§2) IC50 determination for HDAC1 and HDAC3—Prior to adding reagents, 50 nL/well of compound were added to Proxiplates using an Echo dispenser instrument (Beckman Coulter, CA, US). After addition of compound, 2.5 μL/well of 2× enzyme solution was added and the enzyme was pre-incubated with compound for 3 hours at room temp. (˜22° C.). After the pre-incubation period, the enzyme reaction was initiated by adding 2.5 μL/well of 2× Fluor de Lys® substrate solution. The assay reaction was stopped after one hour by adding 5 μl/well of a 0.66× Developer solution containing TSA (3.2 μM). The final product of the enzyme reaction was read using a Spectramax plate reader instrument (Molecular Devices, CA, US) using a fluorescent readout (Ex 360 nm/Em 460 nm). The final enzyme concentrations in the assay buffer for HDAC1 and 3 were 6 and 1.2 nM, respectively. The final Fluor de Lys® substrate concentration in the assay buffer was 16 μM for all HDAC enzymes. IC50 values were determined using the following equation: […]
(§3) Where Efree and Eo are the free and total amount of HDAC enzyme in the reaction mixture, n is the hill coefficient, I is the free inhibitor concentration, and IC50 is the measure of the potency equivalent to the inhibitor concentration that leads to a 50% occupancy of the total enzyme. Each data was generated in duplicate.

HDAC3/NCor2 = HDAC3/NCor2 (Homo sapiens (Human), UniProt O15379); test: HDAC3 inhibition, Fluor de Lys fluorescent enzyme assay; type: biochemical; conditions: 3 hours pre-incubation at room temp; 1.2 nM enzyme; 16 μM Fluor de Lys substrate; duplicate
Chain of HDAC3/NCor2 (O15379 whole entry): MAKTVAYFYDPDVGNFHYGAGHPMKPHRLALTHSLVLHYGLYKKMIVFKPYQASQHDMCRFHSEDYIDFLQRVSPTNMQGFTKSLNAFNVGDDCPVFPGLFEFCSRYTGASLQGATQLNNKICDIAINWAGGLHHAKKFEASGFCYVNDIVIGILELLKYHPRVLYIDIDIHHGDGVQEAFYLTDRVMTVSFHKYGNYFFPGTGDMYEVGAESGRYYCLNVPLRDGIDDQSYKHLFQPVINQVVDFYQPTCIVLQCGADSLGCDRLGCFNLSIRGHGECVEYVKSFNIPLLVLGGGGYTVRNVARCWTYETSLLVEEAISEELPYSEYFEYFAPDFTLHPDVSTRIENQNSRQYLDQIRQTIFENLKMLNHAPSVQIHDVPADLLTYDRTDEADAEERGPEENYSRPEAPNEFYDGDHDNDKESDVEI
Chain of HDAC3/NCor2 (Q9Y618 395-489 partner): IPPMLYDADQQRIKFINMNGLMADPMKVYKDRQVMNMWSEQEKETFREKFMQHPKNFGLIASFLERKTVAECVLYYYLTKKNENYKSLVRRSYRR
Description: as §1, §2, §3

Chain of Recombinant HDAC1 (Q13547 whole entry): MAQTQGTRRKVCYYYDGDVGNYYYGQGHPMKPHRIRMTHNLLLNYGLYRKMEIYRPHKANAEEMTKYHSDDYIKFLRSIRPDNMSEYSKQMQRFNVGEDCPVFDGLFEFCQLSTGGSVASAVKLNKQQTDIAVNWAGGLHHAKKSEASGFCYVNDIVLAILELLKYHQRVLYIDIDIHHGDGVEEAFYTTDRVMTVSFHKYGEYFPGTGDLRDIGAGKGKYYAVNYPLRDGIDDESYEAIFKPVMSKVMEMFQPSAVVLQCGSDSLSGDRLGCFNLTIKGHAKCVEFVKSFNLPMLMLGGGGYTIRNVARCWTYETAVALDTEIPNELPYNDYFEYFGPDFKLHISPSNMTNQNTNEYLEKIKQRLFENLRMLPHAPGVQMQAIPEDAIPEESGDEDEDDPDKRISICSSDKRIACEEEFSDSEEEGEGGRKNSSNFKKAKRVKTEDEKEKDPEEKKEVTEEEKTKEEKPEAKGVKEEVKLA

SMILES | IC50 (Recombinant HDAC1) [nM] | IC50 (HDAC3/NCor2) [nM]
COc1ccc(S(=N)(=O)c2ccc(C(=O)Nc3cc(-c4ccc(F)cc4)ccc3N)cc2)cn1 (centres unmarked) [Compound 222, N-[2-amino-5-(4-fluorophenyl)phenyl]-4-[(6-methoxy-3-pyridyl)sulfonimidoyl]benzamide] | < 100 | 500 to 2000
N=S(=O)(c1ccc(C(=O)Nc2cc(-c3ccc(F)cc3)ccc2N)cc1)c1cncc(CO)c1 (centres unmarked) [Compound 250, N-(4-amino-4′-fluoro-[1,1′-biphenyl]-3-yl)-4-(5-(hydroxymethyl)pyridine-3-sulfonimidoyl)benzamide] | < 100 | 500 to 2000
CC(C)c1cncc(S(=N)(=O)c2ccc(C(=O)Nc3cc(-c4ccc(F)cc4)ccc3N)cc2)c1 (centres unmarked) [Compound 226, N-[2-amino-5-(4-fluorophenyl)phenyl]-4-[(5-isopropyl-3-pyridyl)sulfonimidoyl]benzamide] | < 100 | 500 to 2000
CS(=O)(=NC1CC1)c1ccc2sc(C(=O)Nc3cc(-c4ccc(F)cc4)ccc3N)cc2c1 (centres unmarked) [Compound 211, N-[2-amino-5-(4-fluorophenyl)phenyl]-5-(N-cyclopropyl-S-methyl-sulfonimidoyl)benzothiophene-2-carboxamide] | < 100 | 500 to 2000
CCN=S(C)(=O)c1ccc(C(=O)Nc2cc(-c3ccc(F)cc3)ccc2N)cn1 (centres unmarked) [Compound 169, N-[2-amino-5-(4-fluorophenyl)phenyl]-6-(N-ethyl-S-methyl-sulfonimidoyl)pyridine-3-carboxamide] | < 100 | 500 to 2000
CS(=N)(=O)c1ccc2oc(C(=O)Nc3cc(-c4cccs4)ccc3N)cc2c1 (centres unmarked) [Compound 143, N-[2-amino-5-(2-thienyl)phenyl]-5-(methylsulfonimidoyl)benzofuran-2-carboxamide] | < 100 | 500 to 2000
CS(=N)(=O)Cc1ccc(C(=O)Nc2cc(-c3ccc(F)cc3)ccc2N)cc1 (centres unmarked) [Compound 162, N-[2-amino-5-(4-fluorophenyl)phenyl]-4-[(methylsulfonimidoyl)methyl]benzamide] | < 100 | 500 to 2000
N=[S@](=O)(c1ccc(C(=O)Nc2cc(-c3ccc(F)s3)ccc2N)cc1)C1CC1 (single isomer, unassigned) [Compound 131] | < 100 | 500 to 2000
CS(=O)(=NC1CC1)c1ccc(C(=O)Nc2cc(-c3ccc(F)cc3)ccc2N)cc1 (centres unmarked) [Compound 163, N-[2-amino-5-(4-fluorophenyl)phenyl]-4-(N-cyclopropyl-S-methyl-sulfonimidoyl)benzamide] | < 100 | 100 to 500
CC(O)c1ccc(-c2ccc(N)c(NC(=O)c3ccc(S(C)(=N)=O)cc3)c2)s1 (centres unmarked) [Compound 255, N-[2-amino-5-[5-(1-hydroxyethyl)-2-thienyl]phenyl]-4-(methylsulfonimidoyl)benzamide] | < 100 | > 2000
Nc1ccc(-c2ccc(F)cc2)cc1NC(=O)c1cc2cc(S3(=O)=NCCC3)ccc2o1 (centres unmarked) [Compound 210] | < 100 | 500 to 2000
CS(=N)(=O)c1ccc(C(=O)Nc2cc(-c3cccnc3)ccc2N)cc1 (centres unmarked) [Compound 107, N-[2-amino-5-(3-pyridyl)phenyl]-4-(methylsulfonimidoyl)benzamide] | 100 to 500 | 500 to 2000
N=S(=O)(c1ccc(C(=O)Nc2cc(-c3ccccn3)ccc2N)cc1)C1CC1 (centres unmarked) [Compound 120, N-[2-amino-5-(2-pyridyl)phenyl]-4-(cyclopropylsulfonimidoyl)benzamide] | 100 to 500 | > 2000
N=[S@](=O)(c1ccc(C(=O)Nc2cc(-c3cccs3)ccc2N)cc1)C1CC1 (single isomer, unassigned) [Compound 114] | < 100 | 500 to 2000
CC(C)(C)OC(=O)N=S(=O)(c1ccc(C(=O)Nc2cc(-c3cccs3)ccc2NC(=O)OC(C)(C)C)cc1)C1CC1 (centres unmarked) [Compound 112, tert-butyl N-[[4-[[2-(tert-butoxycarbonylamino)-5-(2-thienyl)phenyl]carbamoyl]phenyl]-cyclopropyl-oxo-sulfanylidene]carbamate] | > 2000 | > 2000
CS(=N)(=O)c1ncc(C(=O)Nc2cc(-c3ccc(F)cc3)ccc2N)s1 (centres unmarked) [Compound 164, N-[2-amino-5-(4-fluorophenyl)phenyl]-2-(methylsulfonimidoyl)thiazole-5-carboxamide] | 100 to 500 | 500 to 2000

SMILES | IC50 (Recombinant HDAC1) [nM] | IC50 (HDAC3/NCor2) [nM]
CS(=N)(=O)c1ccc(C(=O)Nc2cc(-c3cccs3)ccc2N)cn1 (centres unmarked) [Compound 110, N-[2-amino-5-(2-thienyl)phenyl]-6-(methylsulfonimidoyl)pyridine-3-carboxamide] | < 100 | 500 to 2000
COCCS(=N)(=O)c1ccc(C(=O)Nc2cc(-c3cccs3)ccc2N)nc1 (centres unmarked) [Compound 121, N-[2-amino-5-(2-thienyl)phenyl]-5-(2-methoxyethylsulfonimidoyl)pyridine-2-carboxamide] | < 100 | 500 to 2000
CS(=O)(=NC#N)c1ccc(C(=O)Nc2cc(-c3cccs3)ccc2N)cc1 (centres unmarked) [Compound 153, N-[2-amino-5-(2-thienyl)phenyl]-4-(N-cyano-S-methyl-sulfonimidoyl)benzamide] | < 100 | 500 to 2000
CC1CCS(=O)(c2ccc(C(=O)Nc3cc(-c4ccc(F)cc4)ccc3N)cc2)=N1 (centres unmarked) [Compound 244] | < 100 | > 2000
Nc1ccc(-c2ccc(F)cc2)cc1NC(=O)c1ccc([S@]2(=O)=N[C@@H](c3ccccc3)CC2)cc1 (racemic) [Compound 196, rac-N-(4-amino-4′-fluoro-[1,1′-biphenyl]-3-yl)-4-((1S,3R)-1-oxido-3-phenyl-4,5-dihydro-3H-1λ^6-isothiazol-1-yl)benzamide] | < 100 | > 2000
CCN=S(C)(=O)c1ccc2sc(C(=O)Nc3cc(-c4ccc(F)cc4)ccc3N)cc2c1 (centres unmarked) [Compound 207, N-[2-amino-5-(4-fluorophenyl)phenyl]-5-(N-ethyl-S-methyl-sulfonimidoyl)benzothiophene-2-carboxamide] | < 100 | 500 to 2000
CS(=N)(=O)c1cnc2cc(C(=O)Nc3cc(-c4ccc(F)cc4)ccc3N)sc2c1 (centres unmarked) [Compound 200, N-[2-amino-5-(4-fluorophenyl)phenyl]-6-(methylsulfonimidoyl)thieno[3,2-b]pyridine-2-carboxamide] | < 100 | 500 to 2000
N=[S@@](=O)(c1ccc(C(=O)Nc2cc(-c3cccs3)ccc2N)cc1)C1CC1 (single isomer, unassigned) [Compound 115] | < 100 | 500 to 2000
Cc1ccc(-c2ccc(N)c(NC(=O)c3ccc(S(C)(=N)=O)cc3)c2)cc1 (centres unmarked) [Compound 136, N-[2-amino-5-(p-tolyl)phenyl]-4-(methylsulfonimidoyl)benzamide] | < 100 | > 2000
CS(=N)(=O)c1ccc2sc(C(=O)Nc3cc(-c4cccs4)ccc3N)cc2c1 (centres unmarked) [Compound 138, N-[2-amino-5-(2-thienyl)phenyl]-5-(methylsulfonimidoyl)benzothiophene-2-carboxamide] | < 100 | 500 to 2000
CCS(=N)(=O)c1ccc(C(=O)Nc2cc(-c3ccc(F)cc3)ccc2N)cc1 (centres unmarked) [Compound 194, N-[2-amino-5-(4-fluorophenyl)phenyl]-4-(ethylsulfonimidoyl)benzamide] | < 100 | 500 to 2000
CS(=N)(=O)Cc1ccc2sc(C(=O)Nc3cc(-c4ccc(F)cc4)ccc3N)cc2c1 (centres unmarked) [Compound 167, N-[2-amino-5-(4-fluorophenyl)phenyl]-5-[(methylsulfonimidoyl)methyl]benzothiophene-2-carboxamide] | < 100 | 500 to 2000
Nc1ccc(-c2ccc(F)cc2)cc1NC(=O)c1ccc([S@]2(=O)=NCCC2)cc1 (stereo in doubt) [Compound 184, N-[2-amino-5-(4-fluorophenyl)phenyl]-4-[rel-(1S)-1-oxo-4,5-dihydro-3H-isothiazol-1-yl]benzamide] | < 100 | 500 to 2000
Cc1ccncc1S(=N)(=O)c1ccc(C(=O)Nc2cc(-c3ccc(F)cc3)ccc2N)cc1 (centres unmarked) [Compound 198, N-[2-amino-5-(4-fluorophenyl)phenyl]-4-[(4-methyl-3-pyridyl)sulfonimidoyl]benzamide] | < 100 | 500 to 2000
COCCOCc1cncc(S(=N)(=O)c2ccc(C(=O)Nc3cc(-c4ccc(F)cc4)ccc3N)cc2)c1 (centres unmarked) [Compound 193, N-[2-amino-5-(4-fluorophenyl)phenyl]-4-[[5-(2-methoxyethoxymethyl)-3-pyridyl]sulfonimidoyl]benzamide] | < 100 | > 2000
